From the supplement of paper PMC13380429
Structures can show the parent of a compound that is named as a salt.

What was measured:
Conditions in all cases: 72 h
Caco-2 [1] = assay: cell viability relative to DMSO; higher = less toxic
Calu-3 [2] = assay: as above
HepG2 [3] = assay: as above
U2OS [4] = assay: as above
Vero E6 [5] = assay: as above
Caco-2 [6] = assay: relative viability EC50 (midpoint between 100% and the lowest measured viability); higher = less toxic
Calu-3 [7] = assay: as above
HepG2 [8] = assay: as above
U2OS [9] = assay: as above
Vero E6 [10] = assay: as above
Caco-2 [11] = assay: drug sensitivity score (DSS) for viability; higher = more toxic; extreme values may be limits of the assay
Calu-3 [12] = assay: as above
HepG2 [13] = assay: as above
U2OS [14] = assay: as above
Vero E6 [15] = assay: as above

SMILES	cell viability (Caco-2 [1]; 1 nM) [%]	cell viability (Caco-2 [1]; 10 nM) [%]	cell viability (Caco-2 [1]; 100 nM) [%]	cell viability (Caco-2 [1]; 1000 nM) [%]	cell viability (Caco-2 [1]; 10000 nM) [%]	cell viability (Calu-3 [2]; 1 nM) [%]	cell viability (Calu-3 [2]; 10 nM) [%]	cell viability (Calu-3 [2]; 100 nM) [%]	cell viability (Calu-3 [2]; 1000 nM) [%]	cell viability (Calu-3 [2]; 10000 nM) [%]	cell viability (HepG2 [3]; 1 nM) [%]	cell viability (HepG2 [3]; 10 nM) [%]	cell viability (HepG2 [3]; 100 nM) [%]	cell viability (HepG2 [3]; 1000 nM) [%]	cell viability (HepG2 [3]; 10000 nM) [%]	cell viability (U2OS [4]; 1 nM) [%]	cell viability (U2OS [4]; 10 nM) [%]	cell viability (U2OS [4]; 100 nM) [%]	cell viability (U2OS [4]; 1000 nM) [%]	cell viability (U2OS [4]; 10000 nM) [%]	cell viability (Vero E6 [5]; 1 nM) [%]	cell viability (Vero E6 [5]; 10 nM) [%]	cell viability (Vero E6 [5]; 100 nM) [%]	cell viability (Vero E6 [5]; 1000 nM) [%]	cell viability (Vero E6 [5]; 10000 nM) [%]	relative viability EC50 (Caco-2 [6]) [µM]	relative viability EC50 (Calu-3 [7]) [µM]	relative viability EC50 (HepG2 [8]) [µM]	relative viability EC50 (U2OS [9]) [µM]	relative viability EC50 (Vero E6 [10]) [µM]	drug sensitivity score (Caco-2 [11])	drug sensitivity score (Calu-3 [12])	drug sensitivity score (HepG2 [13])	drug sensitivity score (U2OS [14])	drug sensitivity score (Vero E6 [15])
O=C(O)c1cc(O)c(O)c(O)c1 [gallic-acid]	104	89.2	109	96.7	101	85.4	93	96.4	102	102	100	94.8	102	91.4	79.6	99.4	94.8	96.5	97.3	106	99.1	92.4	95	106	102	> 10	> 10	> 10	> 10	> 10	0	0	1.6	0	0
N[C@@H](Cc1c[nH]c2ccc(O)cc12)C(=O)O [5-hydroxytryptophan]	93.3	94.5	92.5	88.8	103	93.6	94.7	94.1	94.4	107	102	97.4	105	106	94.9	100	97.3	99.6	94.2	96.6	98.4	95.7	100	92.3	95.5	> 10	> 10	> 10	> 10	> 10	0	0	0	0	0
C/C(=C\C(=O)OCCCCCCCCC(=O)O)C[C@@H]1OC[C@H](C[C@@H]2O[C@H]2[C@@H](C)[C@H](C)O)[C@@H](O)[C@H]1O [mupirocin]	99.9	107	95.2	98	102	106	104	102	90.8	109	104	100	100	100	92.2	104	99.7	99.3	94.7	99.8	97	102	95.4	97.3	97.1	> 10	> 10	> 10	> 10	> 10	0	0	0	0	0
CCC(C)SSc1ncc[nH]1 (stereo not given) [PX-12]	90.8	100	102	93.1	97.7	106	98	110	84	104	99.3	104	104	98.3	89.8	98	96.4	103	97.5	84.1	96.7	97.8	103	97.5	99.8	> 10	> 10	> 10	> 10	> 10	0	0	0	0.6	0
O=C1C(c2ccccn2)=[N+]([O-])c2ccccc21 [PIT]	104	95.1	92.7	92.1	109	95.2	106	94.7	93.9	102	99.8	103	96	91.8	97.9	97.6	100	99	95.3	101	102	102	97	97.6	97.5	> 10	> 10	> 10	> 10	> 10	0	0	0	0	0
COc1cccc(C2(O)CCCCC2CN(C)C)c1 (stereo not given) [TRAMADOL HYDROCHLORIDE]	93.9	100	96.2	95.2	98.3	106	98.2	115	101	96.2	93.5	96.8	97.4	89.8	106	103	105	97.5	99.3	99.9	101	103	101	97.4	101	> 10	> 10	> 10	> 10	> 10	0	0	0	0	0
O=C(NO)c1cnc(N2CCN(S(=O)(=O)c3ccc4ccccc4c3)CC2)nc1	104	128	84.7	51.8	4.3	107	103	98.9	75.5	24.1	107	96.8	91.5	65.6	11.7	97.9	98.4	94.5	69.3	4.2	102	97.5	100	79.2	-0.1	0.894	1.34	1.29	1.4	1.71	11.2	7.7	8.9	9.4	8.8
CC1CCN(C(c2ccc(F)cc2)c2ccc(C(C)C(=O)O)cc2-c2ccc(C(F)(F)F)cc2)CC1 (stereo not given) [TC-E-5006]	105	99.5	96.2	89	90.1	104	92.3	94.9	96.2	103	97.5	103	99	101	81.6	102	97.9	101	96.5	93.2	97.4	104	95.4	99.2	100	> 10	> 10	> 10	> 10	> 10	0.3	0	0.4	0	0
O=C(Nc1cccc(C(F)(F)F)c1)Nc1cc(S(=O)(=O)NC2CC2)ccc1-c1ccsc1 [AGI-6780]	94.2	93	99.8	97.4	85.7	96.9	90.4	99	103	110	93.3	103	94	105	86.5	97.6	98.9	101	92.3	87.5	95.1	97.4	93.5	97.2	106	> 10	> 10	> 10	> 10	> 10	0.4	0	0.1	0.4	0
COc1c(C)c2c(c(O)c1C/C=C(\C)CCC(=O)O)C(=O)OC2 [mycophenolic-acid]	93.1	102	103	77.5	47	96.3	96.2	97.2	71.3	49.5	101	95.7	95.2	57.5	31.8	98.3	102	94.7	62.6	21.9	96.1	103	96.2	75.2	34.2	1.13	0.814	0.686	1.03	1.29	5.8	6	9	8.7	6.7
CC(C)NCC(O)c1ccc2ccccc2c1 (stereo not given) [pronethalol]	89.8	97.7	87.4	90.8	93.1	91.1	99	101	93.8	93.8	105	91.6	104	87	106	98.5	105	97.7	102	95.5	112	106	100	94.3	98.7	> 10	> 10	> 10	> 10	> 10	0	0	0	0	0
CON(C)C(=O)[C@H](O)[C@H](Cc1ccccc1)NC(=O)c1cc2cc(Cl)ccc2[nH]1	91.9	105	92.9	100	90.4	88.7	109	92.7	106	118	105	95.3	103	90.5	90.1	99.3	102	98.6	101	95.9	106	101	103	94.2	101	> 10	> 10	> 10	> 10	> 10	0	0	0	0	0
CCC(=O)OCC(=O)[C@@]1(OC(=O)CC)[C@@H](C)C[C@H]2[C@@H]3CCC4=CC(=O)C=C[C@]4(C)[C@@]3(Cl)[C@@H](O)C[C@@]21C [beclomethasone-dipropionate]	97.1	97.3	94.3	104	111	104	106	97	101	88.6	97.3	95.7	99.2	81.3	80.2	96.8	102	95.9	99.1	97.2	95.8	90.6	102	80.1	99.5	> 10	> 10	> 10	> 10	> 10	0	0	2.6	0	0
